Results from ChEMBL document CHEMBL1201862, “PubChem BioAssay data set” (2004).
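The compound was tested at five concentrations on cells cultured in 96-well plates, with a 48-hour exposure period. Abbreviation: GI50, concentration required for 50% inhibition of growth.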 Active and inactive are the calls of the source. Rule as the data show it: active = GI50 up to about 1.1 µM and inactive = higher.

Legend:
Experiment in all cases: NCI tumour cell line growth inhibition, 48 h
OVCAR-3 = system: OVCAR-3
MCF7 = system: MCF7
HT-29 = system: HT-29
SNB-19 = system: SNB-19
NCI-H23 = system: NCI-H23
SR = system: SR
OVCAR-5 = system: OVCAR-5
HCT-15 = system: HCT-15
HL-60 = system: HL-60
SN12C = system: SN12C
UACC-62 = system: UACC-62
HCC 2998 = system: HCC 2998
BT-549 = system: BT-549
HCT-116 = system: HCT-116
IGROV-1 = system: IGROV-1
NCI-H460 = system: NCI-H460
Hs-578T = system: Hs-578T
SK-OV-3 = system: SK-OV-3
Malme-3M = system: Malme-3M
NCI/ADR-RES = system: NCI/ADR-RES

| Structure (SMILES) | GI50 (OVCAR-3) | GI50 (MCF7) | GI50 (HT-29) | GI50 (SNB-19) | GI50 (NCI-H23) | GI50 (SR) | GI50 (OVCAR-5) | GI50 (HCT-15) [µM] | GI50 (HL-60) | GI50 (SN12C) | GI50 (UACC-62) | GI50 (HCC 2998) | GI50 (BT-549) | GI50 (HCT-116) | GI50 (IGROV-1) | GI50 (NCI-H460) | GI50 (Hs-578T) | GI50 (SK-OV-3) | GI50 (Malme-3M) | GI50 (NCI/ADR-RES) |
| --- | --- | --- | --- | --- | --- | --- | --- | --- | --- | --- | --- | --- | --- | --- | --- | --- | --- | --- | --- | --- |
| COc1ccc(/C(Cl)=C(\C#N)c2ccc(OC)c(OC)c2)cc1OC | 63.1 µM (inactive) | 59 µM (inactive) | 38.6 µM (inactive) | > 100 µM (inactive) | 80.2 µM (inactive) | 40.2 µM (inactive) | > 100 µM (inactive) | 44.3 | 15.3 µM (inactive) | > 100 µM (inactive) | 42.3 µM (inactive) | > 100 µM (inactive) | 57.7 µM (inactive) | 60.1 µM (inactive) | > 100 µM (inactive) | 36.8 µM (inactive) |  |  |  |  |
| COC1=CCC2=C(CCN(C(=O)C3CC3)C2Cc2ccc(OC)c(O)c2)C1 (stereo not given) | 45.4 µM (inactive) | 33.2 µM (inactive) | 45.9 µM (inactive) | > 100 µM (inactive) | 26.7 µM (inactive) | 4.8 µM (inactive) | > 100 µM (inactive) | 22.1 | 26.7 µM (inactive) | 49.3 µM (inactive) | 48.8 µM (inactive) | 35.1 µM (inactive) |  | 36.6 µM (inactive) | 52 µM (inactive) | 42 µM (inactive) | 69.2 µM (inactive) | > 100 µM (inactive) | 88.9 µM (inactive) | 19 µM (inactive) |
| CCc1ccc2nccc(NCCCN(C)C)c2c1[N+](=O)[O-] | 41.1 µM (inactive) | 72.9 µM (inactive) | 33.4 µM (inactive) | > 100 µM (inactive) | > 100 µM (inactive) | > 100 µM (inactive) | 33.5 µM (inactive) | > 10 | > 100 µM (inactive) | 60.4 µM (inactive) | > 100 µM (inactive) | > 100 µM (inactive) |  | 41.2 µM (inactive) | > 100 µM (inactive) | > 100 µM (inactive) | 30.9 µM (inactive) | > 100 µM (inactive) | > 100 µM (inactive) | > 100 µM (inactive) |
| CCN(C(=S)N[C@H](C(=O)N[C@@H](C)C(=O)OC)C(C)C)c1ccccc1 | > 100 µM (inactive) | 87.3 µM (inactive) | 31.5 µM (inactive) | > 100 µM (inactive) | > 100 µM (inactive) | 18.9 µM (inactive) | > 100 µM (inactive) | 63.1 |  | 66.8 µM (inactive) | 76.7 µM (inactive) | > 100 µM (inactive) | > 100 µM (inactive) | 70.8 µM (inactive) | 25.8 µM (inactive) | 33.6 µM (inactive) |  | > 100 µM (inactive) | 21.8 µM (inactive) | > 100 µM (inactive) |
| CC(=O)OC1C(Oc2c(C)cc3c(c2O)[C@@H](C)CC[C@@H]3[C@@H](C)CCC=C(C)C)OCC(O)C1O (stereo not given in full) | 15.7 µM (inactive) | 20.9 µM (inactive) | 14.4 µM (inactive) | 19.6 µM (inactive) | 17.9 µM (inactive) | 22.9 µM (inactive) | 16.9 µM (inactive) | 17.5 | 21.4 µM (inactive) | 17.5 µM (inactive) | 18.3 µM (inactive) |  |  | 18.2 µM (inactive) | 19.1 µM (inactive) | 16.9 µM (inactive) | 21.5 µM (inactive) | 19.3 µM (inactive) |  | 21.1 µM (inactive) |
| C=C(C(=C)P(=S)(C(C)C)C(C)C)P(=S)(C(C)C)C(C)C | > 100 µM (inactive) |  | > 100 µM (inactive) | > 100 µM (inactive) | > 100 µM (inactive) | > 100 µM (inactive) | > 100 µM (inactive) | > 100 | > 100 µM (inactive) | > 100 µM (inactive) | > 100 µM (inactive) | > 100 µM (inactive) |  | > 100 µM (inactive) | > 100 µM (inactive) | > 100 µM (inactive) |  | > 100 µM (inactive) | > 100 µM (inactive) |  |
| CC(C)c1ccccc1NC(=O)CCc1n[nH]c(=S)o1 | > 100 µM (inactive) |  | > 90.4 µM (inactive) | > 100 µM (inactive) | > 100 µM (inactive) | > 100 µM (inactive) | > 100 µM (inactive) | > 41.7 | > 59.8 µM (inactive) | > 100 µM (inactive) | > 100 µM (inactive) | > 100 µM (inactive) |  | > 63.5 µM (inactive) | > 100 µM (inactive) | > 49.9 µM (inactive) |  | > 100 µM (inactive) | > 100 µM (inactive) |  |
| COc1ccccc1C(=O)c1c(N2CCCCC2)c(=O)c1=O | > 100 µM (inactive) | > 100 µM (inactive) | > 100 µM (inactive) | > 100 µM (inactive) | > 100 µM (inactive) |  | > 100 µM (inactive) | > 100 | > 100 µM (inactive) | > 100 µM (inactive) | > 100 µM (inactive) | > 100 µM (inactive) | > 100 µM (inactive) | > 100 µM (inactive) | > 100 µM (inactive) | > 100 µM (inactive) |  | > 100 µM (inactive) | > 100 µM (inactive) | > 100 µM (inactive) |
| CSc1nc(C)cc(N(C)c2ccccc2)n1 | 27.3 µM (inactive) | 24.9 µM (inactive) | 15.1 µM (inactive) | 85.5 µM (inactive) | 27.9 µM (inactive) | 10.7 µM (inactive) | > 100 µM (inactive) | 38.4 | 32.8 µM (inactive) | 41.8 µM (inactive) | 35.3 µM (inactive) | > 100 µM (inactive) |  | 22.9 µM (inactive) | 36.9 µM (inactive) | 40.7 µM (inactive) | 32.4 µM (inactive) | 37.6 µM (inactive) | 63.7 µM (inactive) | 25.2 µM (inactive) |
| O=C(/C=C/c1ccc(Cl)cc1)c1ccncc1 | 40.8 µM (inactive) |  | 22.3 µM (inactive) | 98.4 µM (inactive) | > 100 µM (inactive) | 45.9 µM (inactive) | > 100 µM (inactive) | 44.5 | 32 µM (inactive) | 51.4 µM (inactive) | 76 µM (inactive) | 40.4 µM (inactive) |  | 62.2 µM (inactive) | 48.2 µM (inactive) | 59.7 µM (inactive) |  | > 100 µM (inactive) | > 100 µM (inactive) |  |
| N#Cc1c(N)nc(S)c(C#N)c1-c1ccccc1 | > 100 µM (inactive) | > 100 µM (inactive) | > 100 µM (inactive) | > 100 µM (inactive) | > 100 µM (inactive) | > 100 µM (inactive) | > 100 µM (inactive) | > 100 | > 100 µM (inactive) | > 100 µM (inactive) | > 100 µM (inactive) | > 100 µM (inactive) | 54 µM (inactive) | > 100 µM (inactive) | > 100 µM (inactive) | > 100 µM (inactive) | > 100 µM (inactive) |  | > 100 µM (inactive) |  |
| O=C1C(Cl)=C(NCCN2CCOCC2)C(=O)c2ncccc21 | 1.6 µM (inactive) | 1.66 µM (inactive) | 2.96 µM (inactive) | 1.69 µM (inactive) | 1.62 µM (inactive) |  | 2.15 µM (inactive) | 1.91 |  | 1.73 µM (inactive) | 1.33 µM (inactive) | 1.47 µM (inactive) | 1.79 µM (inactive) | 1.82 µM (inactive) | 1.97 µM (inactive) | 1.46 µM (inactive) | 2.11 µM (inactive) | 1.95 µM (inactive) | 1.71 µM (inactive) |  |
| CC(=O)c1c(-c2ccc(Cl)cc2)c(C#N)c(=S)n(C2OC(CO)C(O)C(O)C2O)c1C (stereo not given) | 30.8 µM (inactive) |  | 30.1 µM (inactive) | 31 µM (inactive) | 45.4 µM (inactive) | 30.3 µM (inactive) | > 100 µM (inactive) | 82 | 26.9 µM (inactive) | 52.6 µM (inactive) | 22.3 µM (inactive) | > 100 µM (inactive) |  | 47 µM (inactive) | 35.6 µM (inactive) | 37 µM (inactive) |  | 82.8 µM (inactive) | 67 µM (inactive) | > 100 µM (inactive) |
| Oc1ccc2ccccc2c1NCn1nc(CCCCCCCCc2nn(CNc3c(O)ccc4ccccc34)c(=S)o2)oc1=S |  | > 100 µM (inactive) | 25.5 µM (inactive) | > 100 µM (inactive) | > 100 µM (inactive) |  | > 100 µM (inactive) | 43.1 |  | > 100 µM (inactive) | > 100 µM (inactive) | > 100 µM (inactive) | > 100 µM (inactive) | 6.49 µM (inactive) | 6.7 µM (inactive) | > 100 µM (inactive) |  | > 100 µM (inactive) | > 100 µM (inactive) | > 100 µM (inactive) |
| CC(=O)c1ccc(-c2ccc(C(C)=O)s2)s1 | > 100 µM (inactive) |  | > 100 µM (inactive) | > 100 µM (inactive) | > 100 µM (inactive) | > 100 µM (inactive) | > 100 µM (inactive) | > 100 | > 100 µM (inactive) | > 100 µM (inactive) | > 100 µM (inactive) | > 100 µM (inactive) |  | > 100 µM (inactive) | > 100 µM (inactive) | > 100 µM (inactive) |  | > 100 µM (inactive) | > 100 µM (inactive) |  |
| N#Cc1c(N2CCOCC2)ncn(-c2ccc(Cl)cc2)c1=O | > 100 µM (inactive) | > 100 µM (inactive) |  | > 100 µM (inactive) | > 100 µM (inactive) | > 100 µM (inactive) | > 100 µM (inactive) | > 100 | 18.1 µM (inactive) | > 100 µM (inactive) | > 100 µM (inactive) | > 100 µM (inactive) | > 100 µM (inactive) | > 100 µM (inactive) | > 100 µM (inactive) | > 100 µM (inactive) |  | > 100 µM (inactive) |  | > 100 µM (inactive) |
